Results published in patent US20230096766A1, “AMINO ACID HAVING FUNCTIONAL GROUP CAPABLE OF INTERMOLECULAR HYDROGEN BONDING, PEPTIDE COMPOUND CONTAINING SAME AND METHOD FOR PRODUCTION THEREOF” (Chugai Seiyaku Kabushiki Kaisha, priority 2018, published 2023).
*1 amine or outer side, *2 acyl side, *3 side chain or, on linkers, in order; H or OH if unused. Where a SMILES comes first, the peptide text is derived from it. Bridges are numbered along the chain shown (N, C = ends). [ ]: non-standard residue; d: D form. The star is where a group is joined. ξ: configuration not given here. dhPhe(4-CONHMe,3-OMe) = CNC(=O)c1ccc(CC[C@@H](N)C(=O)O)cc1OC; hPhe(3-OMe,4-CONHMe) = CNC(=O)c1ccc(CC[C@H](N)C(=O)O)cc1OC; X10 = CN([C@@H](CCN1CCC(F)(F)CC1)C(=O)[*:2])[*:1]; NMePhe(3-Cl) = CN[C@@H](Cc1cccc(Cl)c1)C(=O)O; X12 = O=C([C@H](CCCC(O)C(F)(F)F)N[*:1])[*:2]; Ethyl(2-morpholino) = C1CN(CC*)CCO1; NMeF = CN[C@@H](Cc1ccccc1)C(=O)O; NMeGABA = CN(CCCC(=O)[*:2])[*:1]; NMeI = CC[C@H](C)[C@H](NC)C(=O)O; CH2CH(OH)CF3 = OC(C*)C(F)(F)F; NMeL = CN[C@@H](CC(C)C)C(=O)O; NMeV = CN[C@H](C(=O)O)C(C)C; NMeAbu = CC[C@H](NC)C(=O)O; NMeA = CN[C@@H](C)C(=O)O; Piperidide = C1CCN(*)CC1; CH2CONHMe = CNC(=O)C*; Me2NCH2CH2 = CN(C)CC*; NBuGly = CCCCNCC(=O)O; NPrGly = CCCNCC(=O)O; Propyl(3-OH) = OCCC*; ξS = NC(CO)C(=O)O; Sar = CNCC(=O)O; tBu = CC(C)(C)*

test: in vitro; settings: human, Caco-2, Caco-2

SMILES | Papp
CCCCN1CC(=O)N(C)[C@@H](C(C)C)C(=O)N[C@H](C(=O)N2CCCCC2)CC(=O)N(C)[C@@H](C)C(=O)N[C@@H](COCCN(C)C)C(=O)N(C)[C@@H](CC(C)C)C(=O)N(C)[C@@H](Cc2ccccc2)C(=O)N[C@@H](CC(C)C)C(=O)N(C)[C@@H](Cc2ccccc2)C(=O)N(C)[C@@H](CC(C)C)C(=O)N[C@@H]([C@@H](C)O)C1=O [pd56] ([NMeA]S(Me2NCH2CH2)[NMeL][NMeF]L[NMeF][NMeL]T[NBuGly][NMeV]D-Piperidide; lactam N-11) | 0.12 ×10⁻⁶ cm/s
CCCCN1CC(=O)N(C)[C@@H](CC(C)C)C(=O)N[C@H](C(=O)N2CCCCC2)CC(=O)N(C)[C@@H](CC)C(=O)NC(COCCN2CCOCC2)C(=O)N(C)[C@@H](CC(C)C)C(=O)N(C)[C@@H](CC)C(=O)N[C@@H](C(C)C)C(=O)N(C)[C@@H](Cc2ccccc2)C(=O)N(C)[C@@H](CC(C)C)C(=O)N[C@@H]([C@@H](C)O)C1=O (stereo partly drawn) [pd483] ([NMeAbu][ξS](Ethyl(2-morpholino))[NMeL][NMeAbu]V[NMeF][NMeL]T[NBuGly][NMeL]D-Piperidide; lactam N-11) | 1.9 ×10⁻⁶ cm/s
CCCCN1CC(=O)N(C)[C@@H](CC(C)C)C(=O)N[C@@H](CC(C)C)C(=O)N(C)[C@@H](Cc2ccccc2)C(=O)N(C)[C@@H](C)C(=O)N[C@H](C(=O)N2CCCCC2)CC(=O)N[C@H](C(C)C)C(=O)N(C)[C@@H](Cc2ccccc2)C(=O)N[C@@H](CC(C)C)C(=O)N(C)[C@@H](CCN2CCC(F)(F)CC2)C(=O)N[C@@H]([C@@H](C)O)C1=O [pd394] ([dV][NMeF]L[X10]T[NBuGly][NMeL]L[NMeF][NMeA]D-Piperidide; lactam N-11) | 1.8 ×10⁻⁶ cm/s

same assay, conditions: human, Caco-2, Caco-2 (cm/sec)

SMILES | Papp
CCCCN1CC(=O)N(C)[C@@H](Cc2ccccc2)C(=O)N(C)[C@@H](CC(C)C)C(=O)N[C@H](CCc2ccc(C(=O)NC)c(OC)c2)C(=O)N(C)[C@@H](CC(C)C)C(=O)N[C@H](C(=O)N2CCCCC2)CC(=O)N(C)CC(=O)N(C)[C@@H](CC(C)C)C(=O)N[C@@H]([C@@H](C)CC)C(=O)N(C)[C@@H](CC(C)C)C(=O)N[C@@H]([C@@H](C)O)C1=O [AP215] ([Sar][NMeL]I[NMeL]T[NBuGly][NMeF][NMeL][dhPhe(4-CONHMe,3-OMe)][NMeL]D-Piperidide; lactam N-11) | 0.43 ×10⁻⁶ cm/s
CC[C@H](C)[C@@H]1NC(=O)[C@H](CC(C)C)N(C)C(=O)[C@@H](C)NC(=O)C[C@@H](C(=O)N2CCCCC2)NC(=O)[C@H](C(C)C)N(C)C(=O)[C@H](CC(C)C)N(C)C(=O)[C@H](COC(C)(C)C)NC(=O)[C@H](CC(C)C)N(C)C(=O)CN(C)C(=O)[C@H](Cc2c[nH]c3ccccc23)NC(=O)[C@H](CC(C)C)N(C)C1=O [pd108] ([dA][NMeL]I[NMeL]W[Sar][NMeL]S(tBu)[NMeL][NMeV]D-Piperidide; lactam N-11) | 0.87 ×10⁻⁶ cm/s
CCCCN1CC(=O)N(C)[C@@H](Cc2cccc(Cl)c2)C(=O)N(C)[C@@H](CC(C)C)C(=O)N[C@@H](COCCCO)C(=O)N(C)[C@@H](CC(C)C)C(=O)N[C@H](C(=O)N2CCCCC2)CC(=O)N(C)CC(=O)N(C)[C@@H](Cc2ccccc2)C(=O)N[C@@H]([C@@H](C)CC)C(=O)N(C)[C@@H](CC(C)C)C(=O)N[C@@H]([C@@H](C)O)C1=O [AP96] ([Sar][NMeF]I[NMeL]T[NBuGly][NMePhe(3-Cl)][NMeL]S(Propyl(3-OH))[NMeL]D-Piperidide; lactam N-11) | 0.17 ×10⁻⁶ cm/s
CC[C@H]1C(=O)N[C@H](CCc2ccc(C(=O)NC)c(OC)c2)C(=O)N(C)[C@@H](CC(C)C)C(=O)N(C)[C@@H](CC(C)C)C(=O)N[C@@H](C(C)C)C(=O)N(C)[C@@H](Cc2ccccc2)C(=O)N(C)[C@@H](CC(C)C)C(=O)N[C@@H]([C@@H](C)O)C(=O)N(C)CC(=O)N(C)[C@@H](CC(C)C)C(=O)N[C@H](C(=O)N2CCCCC2)CC(=O)N1C [AP213] ([NMeAbu][dhPhe(4-CONHMe,3-OMe)][NMeL][NMeL]V[NMeF][NMeL]T[Sar][NMeL]D-Piperidide; lactam N-11) | 0.34 ×10⁻⁶ cm/s
CC(C)C[C@H]1C(=O)N[C@@H](COC(C)(C)C)C(=O)N(C)[C@@H](Cc2ccccc2)C(=O)N(C)[C@@H](C(C)C)C(=O)N[C@H](C(=O)N2CCCCC2)CC(=O)N[C@H](C(C)C)C(=O)N(C)[C@@H](C)C(=O)N[C@@H](C(C)C)C(=O)N(C)[C@@H](CC(C)C)C(=O)N[C@@H](Cc2ccc(O)cc2)C(=O)N(C)CC(=O)N1C [pd121] ([dV][NMeA]V[NMeL]Y[Sar][NMeL]S(tBu)[NMeF][NMeV]D-Piperidide; lactam N-11) | 1 ×10⁻⁶ cm/s
CNC(=O)c1ccc(CC[C@@H]2NC(=O)[C@H](CC(C)C)N(C)C(=O)CCCN(C)C(=O)C[C@@H](C(=O)N3CCCCC3)NC(=O)[C@H](CC(C)C)N(C)C(=O)[C@H](CC(C)C)N(C)C(=O)[C@H]([C@@H](C)O)NC(=O)[C@H](CC(C)C)N(C)C(=O)[C@H](COC(C)(C)C)NC(=O)[C@H](Cc3ccccc3)N(C)C(=O)[C@H](CC(C)C)N(C)C2=O)cc1OC [AP203] ([NMeGABA][NMeL][hPhe(3-OMe,4-CONHMe)][NMeL][NMeF]S(tBu)[NMeL]T[NMeL][NMeL]D-Piperidide; lactam N-11) | 0.41 ×10⁻⁶ cm/s

same assay, conditions: human, Caco-2, Caco-2 (membrane permeability)

SMILES | Papp
CCCCN1CC(=O)N(C)[C@@H](CC(C)C)C(=O)N[C@H](C(=O)N2CCCCC2)CC(=O)N(C)[C@@H](C)C(=O)N[C@@H](COCC(O)C(F)(F)F)C(=O)N(C)[C@@H](CC(C)C)C(=O)N(C)[C@@H](Cc2ccccc2)C(=O)N[C@@H](CC(C)C)C(=O)N(C)[C@@H](Cc2ccccc2)C(=O)N(C)[C@@H]([C@@H](C)CC)C(=O)N[C@@H]([C@@H](C)O)C1=O (stereo partly drawn) [Compound C04] ([NMeA]S(CH2CH(OH)CF3)[NMeL][NMeF]L[NMeF][NMeI]T[NBuGly][NMeL]D-Piperidide; lactam N-11) | 0.29 ×10⁻⁶ cm/s
CC[C@H](C)[C@@H]1NC(=O)[C@H](CC(C)C)N(C)C(=O)[C@H](CCCC(O)C(F)(F)F)NC(=O)[C@H](Cc2ccccc2)N(C)C(=O)CN(C)C(=O)C[C@@H](C(=O)N2CCCCC2)NC(=O)[C@H](CC(C)C)N(C)C(=O)[C@H](COC(C)(C)C)NC(=O)[C@H](CC(C)C)N(C)C(=O)[C@H](Cc2ccccc2)N(C)C(=O)CN(C)C1=O (stereo partly drawn) [Compound D17] ([Sar][NMeF][X12][NMeL]I[Sar][NMeF][NMeL]S(tBu)[NMeL]D-Piperidide; lactam N-11) | 1 ×10⁻⁶ cm/s
CCCCN1CC(=O)N(C)[C@@H](Cc2ccccc2)C(=O)N[C@@H](COCC(=O)NC)C(=O)N(C)[C@@H](CC(C)C)C(=O)N[C@@H]([C@@H](C)O)C(=O)N(CCC)CC(=O)N(C)[C@@H](Cc2ccccc2)C(=O)N(C)[C@@H](CC(C)C)C(=O)N[C@@H](CC(C)C)C(=O)N(C)[C@@H](CC(C)C)C(=O)N[C@H](C(=O)N2CCCCC2)CC1=O [Compound I05] ([NBuGly][NMeF]S(CH2CONHMe)[NMeL]T[NPrGly][NMeF][NMeL]L[NMeL]D-Piperidide; lactam N-11) | 0.8 ×10⁻⁶ cm/s
CC(C)C[C@H]1C(=O)N[C@@H](C(C)C)C(=O)N(C)[C@@H](Cc2ccccc2)C(=O)N(C)[C@@H](Cc2ccccc2)C(=O)N[C@@H](COC(C)(C)C)C(=O)N(C)[C@@H](CC(C)C)C(=O)N[C@@H](COCC(O)C(F)(F)F)C(=O)N(C)[C@@H](CC(C)C)C(=O)N(C)[C@@H](CC(C)C)C(=O)N[C@H](C(=O)N2CCCCC2)CC(=O)N(C)CCCC(=O)N1C (stereo partly drawn) [Compound C12] ([NMeGABA][NMeL]V[NMeF][NMeF]S(tBu)[NMeL]S(CH2CH(OH)CF3)[NMeL][NMeL]D-Piperidide; lactam N-11) | 0.23 ×10⁻⁶ cm/s
